These are literature values, as cited in patent US10426749B2, “Safflower oil emulsion as dietary supplement and preparation thereof” (INNOVITAMIN ORGANICS, LLC, priority 2011, dated 2019).

In this data set the test system is post-menopausal, obese women with type 2 diabetes. As to conditions: 8 grams daily for 16 weeks.

On to conjugated linoleic acid [CLA], for which the “metabolic parameters (trunk fat mass, HDL cholesterol, fasting glucose, insulin sensitivity, C-reactive protein)” value is given as “did not significantly alter”.
